According to patent US7807877B2, “Genetic sequences having methyltransferase activity and uses therefor” (International Flower Developments Pty. Ltd., priority 2002, dated 2010):
Where “and” joins values, the source holds several entries; their conditions need not be identical. Equal values may be shown once.

Assays:
[1] = Reconstruction experiments: anthocyanins added to petal juice of Medeo roses; assay type: physicochemical, Rosa hybrida; details: pH 4.9
Description: The rose cultivar Medeo generally produces cream-colored to pale apricot flowers (RHSCC 158C to 159A). […] The estimated vacuolar pH of Medeo petals is around 4.6. The petal juice of Medeo roses was extracted by grinding one petal with 50 μL of water using a mortar and pestle. The petal juice was collected and mixed with 10-20 μL of 1-2 mg/g delphinidin 3-glucoside, delphinidin 3,5-diglucoside and malvidin 3,5-diglucoside. The colors observed were described according to the Royal Horticultural Society Color Charts (RHSCC) (The Royal Horticultural Society, London) (Table 8).

Petunia FMT (E20) [2] = assay: Methyltransferase assay (14C-SAM, TLC) of crude homogenate of E. coli containing pCGP3086; assay type: biochemical, Petunia hybrida; design: key to Petunidin (product on TLC) / Malvidin (product on TLC): yes = detection of product on TLC; no = no reaction observed as determined by absence of product
Description: 10 mLs of LB containing ampicillin at 100 μg/mL and kanamycin at 25 μg/mL. (LB/Amp100+Kan25) were inoculated with a single colony of pCGP3086 or pQE30 in M15 (pREP4) cells. […] IPTG was then added to a final concentration of 1 mM and the culture was further incubated at 30° C. with shaking for 8 hours. The cells were pelleted by centrifugation at 3500 rpm for 10 minutes at 4° C. The pellet was resuspended in 1 mL of 0.1 M NaPi, pH 7.5, 4 mM MgCl2. […] The mixture was then sonicated for two bursts of 10 seconds at output 2-3 and then incubated on ice for 30 minutes. The cell debris was pelleted by centrifugation at 14,000 rpm for 20 minutes at 4° C. The supernatant was passed through a NAP-10 column (Pharmacia) and 1.5 mL of the sample collected in 0.1 M NaPi, pH 7.5, 4 mM MgCl2. […] (1983), supra. Methyltransferase assays were set up according to Table 10 in a total reaction volume of 50 μL. […] The assay reactions were incubated at 30° C. for 30 minutes. Fifty microlitres of a chloroform mix (CHCl3:methanol/1% HCl, 2:1) was added and the mixture was then vortexed to stop the reactions. […] The tube was then placed in a boiling waterbath for 30 minutes and the contents subsequently desiccated under vacuum.

Torenia FMT (TFMT) [3] = assay: Methyltransferase assay (14C-SAM, TLC) of crude homogenate of E. coli containing pCGP3090; assay type: biochemical, Torenia hybrida; design: key to Petunidin (product on TLC) / Malvidin (product on TLC): yes = detection of product on TLC; no = no reaction observed as determined by absence of product
Description: (§1) The assay reactions were incubated at 30° C. for 30 minutes. Fifty microlitres of a chloroform mix (CHCl3:methanol/1% HCl, 2:1) was added and the mixture was then vortexed to stop the reactions. The phases were separated by centrifugation at 13,000 rpm for 5 minutes and 50 μL of the upper phase was transferred into a clean tube and the contents subsequently hydrolysed by the addition of 12.5 μL of 10M HCl. The tube was then placed in a boiling waterbath for 30 minutes and the contents subsequently desiccated under vacuum. The residue was resuspended in 2-3 μL of methanol/1% HCl and spotted onto a TLC plate alongside standard samples of petunidin, malvidin and delphinidin. The anthocyanidins were separated in a Forestal system (HOAc:water:HCl; 30:10:3) (Markham, Techniques of flavonoid identification, Academic Press, London, 1982) and the TLC was exposed to an autoradiographic film (Kodak) for 16 hours at −70° C.
The confirmation of recombinant protein expression and preparation of crude protein extracts and subsequent determination of methyltransferase activity were as described for the analysis of the Petunia E20 cDNA clone (PFMT) (described above in Example 7).
The enzyme activities of the protein encoded by the Torenia FMT cDNA clone in pCGP3090 along with that of the Petunia FMT (E20) clone in pCGP3086 were assessed using the substrates delphinidin 3-glucoside and delphinidin 3-rutinoside under assay conditions as described in Jonsson et al. (1983), supra and in Example 7 of this specification.
Methyltransferase assays were set up according to Table 15 in a total reaction volume of 50 μL.
Reaction conditions were as described previously (Example 7).

Petunia FMT (E20) [4] = assay: HPLC assay of methyltransferase activity, E. coli extract containing pCGP3086; assay type: biochemical, Petunia hybrida
Description: as §1
(§2) Anthocyanidins in the reaction mixture were analysed by HPLC via gradient elution using gradient conditions of 50% B to 60% B over 10 minutes, then 60% B for 10 minutes and finally 60% B to 100% B over 5 minutes where solvent A consisted of TFA:H2O (5:995) and solvent B consisted of acetonitrile:TFA:H2O (500:5:495). An Asahi Pac ODP-50 cartridge column (250 mm×4.6 mm ID) was used for the reversed phase chromatographic separations. […].
(§3) The enzyme activities of the peptides encoded by Petunia and Torenia FMT cDNA clones in pCGP3086 and pCGP3090, respectively were further assessed using the substrates delphinidin 3-glucoside and delphinidin 3-rutinoside and delphinidin 3,5-diglucoside under assay conditions as previously described (Table 15, Example 9) except that the ^14C-labelled SAM was replaced with non radioactive SAM at 2 mg/mL and the substrates (delphinidin 3-glucoside and delphinidin 3-rutinoside and delphinidin 3,5-diglucoside) at 2 mg/mL.

Torenia FMT (TFMT) [5] = assay: HPLC assay of methyltransferase activity, E. coli extract containing pCGP3090; assay type: biochemical, Torenia hybrida
Description: as §1, §2, §3

[6] = pCGP3086 crude homogenate + 14C-SAM (Table 16, positive control)
[7] = pCGP3086 crude homogenate + 14C-SAM, 30° C., 30 minutes (Table 11)
[8] = pCGP3090 crude homogenate + 14C-SAM (Table 16)
[9] = pCGP3086 (PFMT), percentage of total anthocyanidins, duplicate a/b
[10] = pCGP3086, substrate 2 mg/mL, SAM 2 mg/mL, duplicate a/b
[11] = pCGP3090 (TFMT), percentage of total anthocyanidins, duplicate a/b
[12] = pCGP3090, substrate 2 mg/mL, SAM 2 mg/mL, duplicate a/b

OC[C@H]1O[C@@H](Oc2cc3c(O)cc(O)cc3[o+]c2-c2cc(O)c(O)c(O)c2)[C@H](O)[C@@H](O)[C@@H]1O [D3G, delphinidin 3-glucoside]
COLOR [1]: red-purple
RHSCC# [1]: 74A
Petunidin and malvidin, the methylated derivatives of delphinidin, in assay reactions (Petunia FMT (E20) [2]; crude homogenates from pCGP3086 cells, 14C-SAM): detected
Malvidin (product on TLC) (Petunia FMT (E20) [2]; [6]): yes
Petunidin (product on TLC) (Petunia FMT (E20) [2]; [6]): yes
Malvidin (product on TLC) (Petunia FMT (E20) [2]; [7]): yes
Petunidin (product on TLC) (Petunia FMT (E20) [2]; [7]): yes
Petunidin and malvidin, the methylated derivatives of delphinidin, in assay reactions (Torenia FMT (TFMT) [3]; crude homogenates from pCGP3090 (containing TFMT), 14C-SAM): detected
Malvidin (product on TLC) (Torenia FMT (TFMT) [3]; [8]): yes
Petunidin (product on TLC) (Torenia FMT (TFMT) [3]; [8]): yes
product of flavonoid methyltransferase activity with the substrate (Petunia FMT (E20) [4]; Petunia FMT (E20) in pCGP3086, to a lesser degree malvidin): predominantly petunidin
Predominant FMT Activity (Petunia FMT (E20) [4]; pCGP3086): 3′FMT
% of anthocyanidin detected cya (Petunia FMT (E20) [4]; [9]): 11.8% and 9.7%
% of anthocyanidin detected del (Petunia FMT (E20) [4]; [9]): 35.5% and 31.4%
% of anthocyanidin detected mal (Petunia FMT (E20) [4]; [9]): 6.0% and 6.5%
% of anthocyanidin detected peo (Petunia FMT (E20) [4]; [9]): 2.7% and 3.0%
% of anthocyanidin detected pet (Petunia FMT (E20) [4]; [9]): 44.0% and 49.4%
Anthocyanidins (mg/g) Cya (Petunia FMT (E20) [4]; [10]): 2.4 mg/g and 2.0 mg/g
Anthocyanidins (mg/g) Del (Petunia FMT (E20) [4]; [10]): 7.1 mg/g and 6.4 mg/g
Anthocyanidins (mg/g) Mal (Petunia FMT (E20) [4]; [10]): 1.2 mg/g and 1.3 mg/g
Anthocyanidins (mg/g) Peo (Petunia FMT (E20) [4]; [10]): 0.5 mg/g and 0.6 mg/g
Anthocyanidins (mg/g) Pet (Petunia FMT (E20) [4]; [10]): 8.8 mg/g and 10.0 mg/g
product of flavonoid methyltransferase activity with the substrate (Torenia FMT (TFMT) [5]; Torenia FMT in pCGP3090, to a lesser degree petunidin): predominantly malvidin
Predominant FMT Activity (Torenia FMT (TFMT) [5]; pCGP3090): 3′5′FMT
% of anthocyanidin detected cya (Torenia FMT (TFMT) [5]; [11]): 4.5% and 3.6%
% of anthocyanidin detected del (Torenia FMT (TFMT) [5]; [11]): 7.8%
% of anthocyanidin detected mal (Torenia FMT (TFMT) [5]; [11]): 74.0% and 75.2%
% of anthocyanidin detected peo (Torenia FMT (TFMT) [5]; [11]): 8.5% and 8.0%
% of anthocyanidin detected pet (Torenia FMT (TFMT) [5]; [11]): 5.1% and 5.4%
Anthocyanidins (mg/g) Cya (Torenia FMT (TFMT) [5]; [12]): 1.0 mg/g and 0.9 mg/g
Anthocyanidins (mg/g) Del (Torenia FMT (TFMT) [5]; [12]): 1.8 mg/g and 1.9 mg/g
Anthocyanidins (mg/g) Mal (Torenia FMT (TFMT) [5]; [12]): 17.1 mg/g and 18.1 mg/g
Anthocyanidins (mg/g) Peo (Torenia FMT (TFMT) [5]; [12]): 2.0 mg/g and 1.9 mg/g
Anthocyanidins (mg/g) Pet (Torenia FMT (TFMT) [5]; [12]): 1.2 mg/g and 1.3 mg/g
